Measurements: the CATMoS acute toxicity set (Mansouri et al. 2021)

Assay: GHS categories as the set defines them, by LD50: 1 up to 5, 2 up to 50, 3 up to 300, 4 up to 2000, 5 above 2000 mg/kg
Conditions: rat; in vivo; po

Row | SMILES | GHS category
1 | C=CCC(C)C | 5
2 | CCCCCCCC(=O)Nc1ccc(Cc2ccccn2)c([N+](=O)[O-])c1 | 3
3 | CCCCCCCCCC(OC)OC | 5
4 | COc1cc(OC)nc(NC(=O)NS(=O)(=O)c2ncccc2OCC(F)(F)F)n1 | 5
5 | O=[N+]([O-])c1cc(C(F)(F)F)c(Cl)c([N+](=O)[O-])c1Nc1ncc(C(F)(F)F)cc1Cl | 5
6 | O=C1c2c(Cl)c(Cl)c(Cl)c(Cl)c2C(=O)C1c1ccc2cccc(N3C(=O)c4c(Cl)c(Cl)c(Cl)c(Cl)c4C3=O)c2n1 | 5
7 | COc1cc(OC)nc(NC(=O)NS(=O)(=O)c2ncccc2C(=O)N(C)C)n1 | 5
8 | Cc1cc(O)c2c(O)c(-c3ccc4cc(C)cc(O)c4c3O)ccc2c1 | 5
9 | CCCCNC1CC(C)(C)NC(C)(C)C1 | 4
10 | c1ccc(C2=NN(c3ccccc3)C(c3ccccc3)C2)cc1 (stereo unspecified) | 5
11 | CCCCc1nc(C=O)c(Cl)[nH]1 | 5
12 | CCCc1nc2ccnn2c(NCCN2CCOCC2)c1Cc1ccc(-c2ccccc2-c2nn[nH]n2)cc1 | 4
13 | CCCCCCCCCCCC(=O)N(CC)CC | 5
14 | Nc1c(I)c(C(=O)Cl)c(I)c(C(=O)Cl)c1I | 5
15 | CCCCCCCCC(=O)O | 5
16 | CO[C@@]1(NC(=O)Cc2cccs2)C(=O)N2C(C(=O)O)=C(COC(N)=O)CS[C@@H]21 | 5
17 | C[C@@H]1C[C@H]2[C@@H]3CCC4=CC(=O)C=C[C@]4(C)[C@@]3(F)[C@@H](O)C[C@]2(C)[C@@]1(O)C(=O)COS(=O)(=O)O | 5
18 | O=C(O)c1ccccc1SSc1ccccc1C(=O)O | 5
19 | NC(=O)N=NC(N)=O | 5
20 | CC(C)Oc1cccc(NC(=O)c2ccccc2C(F)(F)F)c1 | 5
21 | CCCCOC(=O)c1ccccc1N=Nc1c(O)c(C(=O)Nc2ccc3[nH]c(=O)[nH]c3c2)cc2ccccc12 | 5
22 | C=C(C)C1CCC(C)C(OC(C)=O)C1 (stereo unspecified) | 5
23 | O=C1OC(CN2CCCCC2)CC12CC(CN1CCCCC1)OC2=O (stereo unspecified) | 5

Row | SMILES | GHS category
24 | CCc1cc(C)cc(CC)c1-c1c(OC(=O)C(C)(C)C)n2n(c1=O)CCOCC2 | 5
25 | O=C=Nc1cccc2ccccc12 | 5
26 | CC(=O)CC(=O)Nc1ccc(S(=O)(=O)O)cc1 | 5
27 | Clc1ccc2c(n1)C(c1ccccc1Cl)=NCc1nncn1-2 | 5
28 | CS(=O)(=O)c1cc(C(F)(F)F)ccc1C(=O)c1cnoc1C1CC1 | 5
29 | O=C(O)[C@@H]1C[C@@H](C2CCCCC2)CN1 | 5
30 | CCCC1CCOC(C)S1 (stereo unspecified) | 5
31 | CC(C)[C@@H]1CC[C@@H](C)C[C@H]1OC(=O)Cc1ccccc1 | 5
32 | CCCCC/C=C\C/C=C\CCCCCCCC(=O)NC(C)c1ccccc1 (stereo unspecified) | 5
33 | CC#CCC(C)[C@H](O)/C=C/C1[C@H](O)C[C@@H]2C/C(=C\CCCC(=O)O)C[C@H]12 (stereo partly specified) | 3
34 | O=S(=O)([O-])CCC[n+]1ccccc1 | 5
35 | CC(C)(C)c1ccc(OP(Oc2ccc(C(C)(C)C)cc2C(C)(C)C)Oc2ccc(C(C)(C)C)cc2C(C)(C)C)c(C(C)(C)C)c1 | 5
36 | CCC(C)C(=O)OCCc1ccccc1 (stereo unspecified) | 5
37 | CCOC[C@@H]1CO[C@@](Cn2ccnc2)(c2cc3cc(Cl)cc(Cl)c3o2)O1 | 4
38 | CCC(C)n1ncn(-c2ccc(N3CCN(c4ccc(OC[C@H]5CO[C@](Cn6cncn6)(c6ccc(Cl)cc6Cl)O5)cc4)CC3)cc2)c1=O (stereo partly specified) | 4
39 | CCCCCCCSCCCCN1CCCCCC1=O | 5
40 | CCN(C(=O)CCCCc1nnnn1-c1ccccc1)C1CCCCC1 | 4
41 | CC1CC(OC(=O)C(C)(C)Oc2ccc(Cl)cc2)CC(C)(C)C1 (stereo unspecified) | 5
42 | CCCN(CCC)C(=O)C(CCC(=O)OCCOCCOC(=O)Cc1c(C)n(C(=O)c2ccc(Cl)cc2)c2ccc(OC)cc12)NC(=O)c1ccccc1 (stereo unspecified) | 4
43 | CC(=O)OCCOC(C)C | 4
44 | CN1C(=O)C(C)(C)Oc2cc(C(=O)c3ccccc3)ccc21 | 5
45 | Nc1c(I)c(C(=O)O)c(I)c(C(=O)O)c1I | 5
46 | CCCCCCCCOC=O | 5

Row | SMILES | GHS category
47 | C=CC(=O)OCCCCCC(C)C | 5
48 | Cc1cccn2c(=O)c(C(=O)NC3CCCC3)cnc12 | 3
49 | CCOCCOCCOC(=O)C1CCC(C(=O)OCCOCCOCC)CC1 (stereo unspecified) | 5
50 | CCOC[C@H]1CO[C@@](Cn2cncn2)(c2cc3ccccc3o2)O1 | 4
51 | CCCc1nc2c(C)cc(-c3nc4ccccc4n3C)cc2n1Cc1ccc(-c2ccccc2C#N)cc1 | 5
52 | O=C(CSCCO)NCCCOc1cccc(CN2CCCCC2)c1 | 5
53 | CO/N=C(\C(=O)N[C@@H]1C(=O)N2C(C(=O)[O-])=C(C[N+]34CCC(C(N)=O)(CC3)CC4)CS[C@H]12)c1nsc(N)n1 | 5
54 | FC1(F)COC1(F)F | 4
55 | Cc1ccc(Nc2ccc(Nc3ccc(C)cc3S(=O)(=O)O)c3c2C(=O)c2ccccc2C3=O)c(S(=O)(=O)O)c1 | 5
56 | Cc1ccc(S(=O)(=O)NC(=O)Nc2cccc(OS(=O)(=O)c3ccc(C)cc3)c2)cc1 | 5
57 | O=C1CN=C(c2ccccc2Cl)c2cc([N+](=O)[O-])ccc2N1 | 5
58 | O=C1NC(c2ccccc2)=C2C(=O)NC(c3ccccc3)=C12 | 5
59 | CCCCC(=O)O[C@]1(C(=O)CO)[C@H](C)C[C@H]2[C@@H]3CCC4=CC(=O)C=C[C@]4(C)[C@@]3(F)[C@@H](O)C[C@@]21C | 5
60 | O=C(Nc1cccc2c(=O)c3c(ccc4c5cc(NC(=O)c6ccccc6)c6c(=O)c7ccccc7c(=O)c6c5[nH]c43)c(=O)c12)c1ccccc1 | 5
61 | CCN(CC)c1nc2ccccn2c(=O)c1C=NN1CCOC1=O | 3
62 | Cc1ccc2c(c1)c(-c1ccccc1)nn2CCCN(C)C | 4
63 | O=S(=O)(CCl)c1ccc(Br)cc1 | 5
64 | CC(C)c1ccccc1OP(=O)(Oc1ccccc1C(C)C)Oc1ccccc1C(C)C | 5
65 | Cc1cccc(C)c1NC(=O)CN1CCN(CCCC(c2ccc(F)cc2)c2ccc(F)cc2)CC1 | 5
66 | Cc1cccc(Nc2ccncc2S(=O)(=O)NC(=O)NC(C)C)c1 | 5
67 | CCCCCCCC(=O)OCCCCCC | 5
68 | COC(=O)C1=C(C)NC(C)=C(C(=O)OC2COC3C(O)COC23)C1c1cccc([N+](=O)[O-])c1 (stereo unspecified) | 5
69 | NC(=O)c1ccc(NC(=O)c2ccc([N+](=O)[O-])cc2)cc1 | 5

Row | SMILES | GHS category
70 | CCCCCCCCCCCC(=O)N(CCCC)CCCC | 5
71 | Cc1cc(C(=O)Nc2ccccc2C(F)(F)F)n[nH]1 | 5
72 | COc1ccc(C2NC(=O)C(C)S2)cc1 (stereo unspecified) | 5
73 | CO/C=C(/C(=O)OC)c1ccccc1Oc1cc(Oc2ccccc2C#N)ncn1 | 5
74 | Cc1cccc2c1NC(=O)C2(c1ccc(OS(=O)(=O)O)cc1)c1ccc(OS(=O)(=O)O)cc1 | 5
75 | NC[C@H]1O[C@H](O[C@H]2[C@H](O)[C@@H](O[C@H]3O[C@H](CO)[C@@H](O)[C@H](N)[C@H]3O)[C@H](N)C[C@@H]2N)[C@H](O)[C@@H](O)[C@@H]1O | 5
76 | CC(C)=C1CC[C@H](C)C2=C(C1)[C@@H](C)CC2 | 5
77 | CO[C@@]1(NC(=O)CSC(F)F)C(=O)N2C(C(=O)O)=C(CSc3nnnn3CCO)CO[C@@H]21 | 5
78 | CC(C)OC(=O)C(C)(C)Br | 5
79 | CCc1cc(Cc2cc(CC)cc(C(C)(C)C)c2O)c(O)c(C(C)(C)C)c1 | 5
80 | CCO[Si](CC(C)C)(OCC)OCC | 5
81 | Oc1ccc(-c2ccccc2)cc1 | 5
82 | CC(=O)CSc1nnnn1C | 4
83 | CCCCCCCC/C=C\CCCCCCCC(=O)OC[C@@H](OC(=O)CCCCCCC/C=C\CCCCCCCC)[C@H]1OC[C@H](O)[C@H]1O | 5
84 | CCN(CC)C(=O)CCCn1nnnc1C | 4
85 | Cc1cccc2ncc(C(=O)Nc3ccc(Cl)cc3)c(=O)n12 | 3
86 | CC(=O)OCC(=O)C1(O)C(O)CC2C3CCC4=CC(=O)C=CC4(C)C3=CCC21C (stereo unspecified) | 5
87 | O=C(OCCOCCO)c1ccccc1Nc1ccc(O)c(C(F)(F)F)c1 | 4
88 | COCCOC(=O)C(=O)Nc1nc(-c2ccccc2)cs1 | 5
89 | Nc1ccc(NCCO)c([N+](=O)[O-])c1 | 4
90 | C=CC(=O)OCCOCC(CC)(COCCOC(=O)C=C)COCCOC(=O)C=C | 5
91 | CCCCCCCCCCCCCCCCNP1(=S)OCc2cc([N+](=O)[O-])ccc2O1 (stereo unspecified) | 3
92 | CCOc1nn(-c2cccc(C(F)(F)F)c2)c2ncccc12 | 4

Row | SMILES | GHS category
93 | N#Cc1c[nH]cc1-c1cccc(Cl)c1Cl | 5
94 | NCCCCCCCCCCCC(=O)O | 5
95 | CNC(=O)C(=NNc1ccc(Cl)cc1[N+](=O)[O-])C(C)=O | 5
96 | CC1(C)S[C@@H]2[C@H](NC(=O)[C@H](N)c3ccc(O)cc3)C(=O)N2[C@H]1C(=O)O | 5
97 | Nc1ccc2oc(N)nc2c1 | 4
98 | CCOP(=S)(OCC)ON=C(C#N)c1ccccc1Cl | 5
99 | CC(CO)CCCC1CCCCC1 (stereo unspecified) | 5
100 | COCC(=O)O[C@]1(CCN(C)CCCc2nc3ccccc3[nH]2)CCc2cc(F)ccc2[C@@H]1C(C)C | 4
101 | CC1(C)O[C@@H]2C[C@H]3[C@@H]4C[C@H](F)C5=CC(=O)C=C[C@]5(C)[C@H]4[C@@H](O)C[C@]3(C)[C@]2(C(=O)CO)O1 | 1
102 | C[C@@H](Oc1cc(Br)cnc1N)c1c(Cl)ccc(F)c1Cl | 5
103 | Cc1ccc(NC(=O)N(C)C)cc1NC(=O)N(C)C | 5
104 | CC1(C)COB(OCC(C)(C)COB2OCC(C)(C)CO2)OC1 | 5
105 | C1=CCC(c2ccccc2)CC1 (stereo unspecified) | 5
106 | Cc1ccn2c(=O)c(C(=O)NC3CCCC3)cnc2c1 | 3
107 | O=C1NC(=O)C(c2ccc(O)cc2)N1 (stereo unspecified) | 5
108 | CCO[Si](C)(OCC)OCC | 5
109 | COc1ccc2c(c1)CCN(c1ccccc1)C2c1ccc(F)cc1 (stereo unspecified) | 4
110 | CC/C=C\CCOC(=O)C/C=C\CC | 5
111 | NC(=O)OC[C@@H]1[C@H](NC(=O)/C(=N\OCC(=O)O)c2csc(N)n2)C(=O)N1S(=O)(=O)O | 5
